From US8106092B2, “Treatment of solid cancers” (priority 2004, dated 2012)

Key:
Assay type in all cases: in vivo, C57BL/6 mice
Lewis lung-OVA tumors = assay: Topical PEP005 treatment of Lewis lung-OVA tumors: tumor growth and SIINFEKL-specific CD8+ T-cell ELISPOT
Description: B16 and B16 cells stably expressing ovalbumin (B16-OVA)were grown s.c. in C57BL/6 mice as described previously (Ogbourne et al, Cancer Res 64:2833-2839, 2004; Anraku et al, J Virol 76:3791-3799, 2002). Lung metastases were established as described (Zeh et al, J Immunol 162:989-994, 1999). Lewis lung-OVA (Nelson et al, J Immunol 166:5557-5566, 2001) were grown s.c. in C57BL/6 as described (Lenarczyk et al, Vaccine 22:963-974, 2004).
Tumors were treated by topical or intratumoral (i.t.) injection (using a 26 gauge needle) of (i) PEP0005 dissolved in acetone and then RPMI 1640 (final concentration of acetone 4%), or (ii) PEP005 formulated in PEG400.
(§1) Mouse splenocytes were analyzed by ex vivo IFNγ ELISPOT essentially as described previously (Le et al, Vaccine 19:4669-4675, 2001), but using MultiScreen-IP plates (Millipore) and 25 IU/ml of recombinant human IL-2 (Cetus).
Lewis lung-OVA tumors were established on five C57/B16 mice; when they had reached 10-20 mm^2, they were treated topically with PEP005. […] A parallel group of tumor-bearing mice (M7-12) were treated (vehicle only) and grew rapidly as expected with mean size±SD shown (FIG. 2, V(M7-12)). […] The sensitivity of this assay is about five spots per 10^6 splenocytes. […] Thus, again PEP005 treatment was associated with induction of anti-cancer CD8^+ T-cells.

[1] = tested on: SIINFEKL [SEQ ID NO:2]-specific CD8^+ T-cells; assay: SIINFEKL-specific CD8+ T-cells by IFNγ ELISPOT after i.t. PEP005 treatment of Lewis lung-OVA
Description: FIGS. 4A to D are graphical representations showing protection against secondary tumors following cure of primary tumors with PEP005. (A) C57BL/6 mice received 5×10^5 Lewis lung-OVA s.c. on the back on day less 7 (d−7). When these primary tumors had reached an average 13.6 mm^2±1.8 SE (range 10-25 mm^2) on d0 they were treated once with 16 μg of PEP005 delivered i.t. In eight mice these primary tumors were cured, and these mice received 5×10^5 Lewis lung-OVA s.c. on d4 on the opposite flank from the primary tumors. The emergence of these secondary tumors was monitored over time (PEP005 cured). In a parallel group of animals (n=5) PEP005 treatment regressed the primary tumors, but after 11-13 days the primary tumors re-emerged. These animals also received secondary tumors as above and their emergence was again monitored over time (PEP005 regressed). Two control groups were included. One group (n=6) received no primary tumors, but was treated s.c. with PEP005 and received secondary tumors on the opposite flank (white triangles, PEP005 s.c.). […] Secondary B16-OVA (10^5) were injected i.v. on d6 and animals were sacrificed on d27 and lung metastases counted.
as §1

B16 lung metastases = assay: B16 lung metastasis model
Description: FIG. 5 is a graphical representation showing the treatment of s.c. B16 tumors with PEP005 reduced growth B16 lung metastases. C57BL/6 mice (n=7) were injected with 10^6 B16 cells s.c. and 5×10^4 B16 cell i.v. on d−2. On dO the s.c. tumors had reached an average 21.8 mm^2+SE 2.4 and were cured with 25 μg of i.t. PEP005 formulated with PEG400. On d18 the mice were euthanazed and lung weights determined (PEP005). Control mice received only i.v. B16 and naïve mice received no tumors (n=6 per group).
The activity of PEP005-mediated cure of primary tumors was assessed in a more robust model using B16 tumors rather than B16-OVA tumors and where primary tumors and lung metastases were both established prior to PEP005 treatment. When the primary tumors had reached 21.8+SE 2.4 they were cured with i.t. PEP005 injection. […] After subtracting the weight of tumor free lungs (FIG. 5A, naïve, dotted line), this represented a reduction in lung tumor burden of over 50%.

B16 tumors = assay: B16-specific antibody responses by ELISA after PEP005 treatment of B16 tumors; details: as early as d11; exceeding untreated animals with large tumor burdens, p=0.045 at 1/100 dilution
Description: FIG. 15 is a graphical representation showing antibody responses following PEP005 treatment of B16 tumors. B16 tumors growing on C57BL/6 mice were cured with PEP005 treatment after they had reached 30-60 mm^3, (one tumor per mouse) and B16-specific antibody titers were measured by standard ELISA on blood taken d11 post treatment initiation (n=6) (▪) or d135 post treatment initiation (n=5) (▴). Antibody titers for untreated animals whose tumors had reached 121.5±SD 20.1 (n=4) by d11 are also shown (X). Naïve mice (n=5) received no tumors (i).
Anti-tumor antibodies are known to have anti-cancer activity. […] B16 cells (10^6) were injected s.c. (1 tumor/mouse) into the flanks of female, 6-10 week-old mice and when tumors had reached ≈30-60 mm^3 they were treated with PEP005 as above. On d11 and 135 serum was taken and analyzed by ELISA for antibodies specific for B16. A group of B16 bearing animals which were not treated with PEP005 and a naïve group were also included. B16 cells were sonicated in carbonate buffer 9pH=9) and absorbed onto Immuno Maxisorp 96 well plates (Nunc) overnight and dried. The plates were blocked with 5% v/v FBS, 0.01% v/v Tween in PBS for 1 hour at 37° C. […]

[2] = topical PEP005, tumors 10-20 mm^2 at treatment

C/C=C(/C)C(=O)O[C@H]1C(C)=C[C@]23C(=O)[C@@H](C=C(CO)[C@@H](O)[C@]12O)[C@H]1[C@@H](C[C@H]3C)C1(C)C [PEP005, ingenol-3-angelate] was tested, and the “SIINFEKL-specific CD8+ T-cell responses” value (Lewis lung-OVA tumors; animals with Lewis lung-OVA tumors treated topically with PEP005) was “a range of responses that correlated with the effectiveness of the treatment”, the “SIINFEKL-specific CD8+ T-cell responses, mean ± SD for all mice” value (Lewis lung-OVA tumors; topical PEP005, mice without tumors, assay sensitivity about five spots) was 6.3±9.8 spots per 10^6 splenocytes and the “animals showing a limited response of five treated” value (Lewis lung-OVA tumors; [2]) was “two”. The “animals showing a partial response of five treated” value (Lewis lung-OVA tumors; [2]) was “two”, the “tumors cured of the five tumors treated” value (Lewis lung-OVA tumors; [2]) was “one” and the “number of SIINFEKL-specific CD8+ T-cells vs untreated control animals” value ([1]; PEP005 injected s.c. rather than into a tumor) was “failed to increase”. The “SIINFEKL-specific CD8+ T-cells vs control animals” value ([1]; primary tumors cured by PEP005, p=0.008 unpaired t-Test) was “significantly more”, the “reduction in lung tumor burden” value (B16 lung metastases; after subtracting the weight of tumor free lungs, d18) was “over 50%” and the “lung weights on d18 compared to controls” value (B16 lung metastases; s.c. B16 primaries cured with i.t. PEP005, lung metastases established before treatment, p=0.023) was “lighter”. The “B16-specific antibody responses (ELISA)” value (B16 tumors) was “clearly detectable antibody responses”.
